Each structure is given as a SMILES string. Like-named read-outs stand apart in the source and are kept apart here.

One data set deals with isoamyl aldehyde. Particulars: for BTCG excreted in urine: LC/MS. An excerpt: In the second study, isoamyl alcohol replaced ethanol, and cyanamide, another clinically-used ALDH inhibitor (Tottmar et al., 1977), replaced disulfiram to block the further metabolism of isoamyl aldehyde derived from isoamyl alcohol (FIG. 3). Isoamyl alcohol is the most abundant small, branched-chain alcohol congener present in bourbon (Damrau and Liddy, 1960). […] The excreted product in urine here would be 2-isoobutylthiazolidine-4-carbonylglycine, viz., BTCG (FIG. 1). The urines were analyzed for BTCG by LC/MS as above.

The next data set concerns acetaldehyde. The data set is described as follows: MTCG in urine of rats treated with ethanol, disulfiram and CG or CbG. Particulars: for oral bioavailability (in words): inferred from urinary MTCG excretion. On the procedure:
In the first study, rats were administered disulfiram, an ALDH inhibitor and alcohol deterrent drug used to inhibit the metabolism of ethanol at the acetaldehyde stage, thus producing an adverse reaction that discourages further alcohol drinking (reviewed in Wikipedia, 2017). Treatment of rats with disulfiram causes a buildup of acetaldehyde in blood (Nagasawa et al, 1978). The rats were then administered CbG, orally, to determine whether CbG, following its in vivo conversion to CG, can sequester the acetaldehyde produced in the disulfiram-treated rats to a product that is excreted into the urine. Note that CbG in vivo may be reduced 2 CG. The product expected from this sequestration reaction is MTCG (vide supra). The MTCG in rat urine, collected over 24 hours following the ethanol dose, was quantitatively analyzed by LC/MS.

Data set [1] in a line: Stability of MTCG in 0.1 N HCl. The class given is physicochemical. The text has this:
Although identified in urine, the long-term stability of MTCG in urine is still a question. MTCG is found to be stable in 0.1 N HCl, so we plan to collect the rat urine in acidified containers on ice. Presence of MTCG will be determined using a HPLC/MS method to obtain quantitative data of MTCG in rat urine.

The conditions of data set [2]: rat biological fluids; cited from earlier work.
The nature of data set [3]: Urinary excretion and metabolic fate of MTCA in rats. The class given is in vivo. The text has this:
We examined cysteine (the natural “L’ form), a semi-essential sulfhydryl amino acid, as a sequestering agent for acetaldehyde (Nagasawa et al., 1975). Indeed, cysteine readily condensed with acetaldehyde in aqueous solution to form a cyclic product, 2-methylthiazolidine-4 carboxylic acid (MTCA). […] We, therefore, prepared and administered radio-labeled MTCA (^14C at the 2-position) to a rat to follow its metabolic course (Nagasawa et al., 1984).

With `NC(CSSCC(N)C(=O)NCC(=O)O)C(=O)NCC(=O)O` (centres unmarked) [CbG, cystinyl-bis-glycine], the “BTCG excreted in urine” value in the data set with isoamyl aldehyde (Group A: cyanamide, isoamyl alcohol and CbG) is on record as “excreted BTCG in the urine, albeit minimally”; in the data set on isoamyl aldehyde (Group C: isoamyl alcohol and CbG, no cyanamide), “no BTCG could be detected in urine”. Also, the condition of animals result in the data set on isoamyl aldehyde (Group A: rats receiving cyanamide, isoamyl alcohol and CbG, group without CbG was comatose (3 of 7) with one death) was “normal although hypoactive”; in the data set with isoamyl aldehyde (Group C: rats receiving isoamyl alcohol and CbG, no cyanamide), “normal but more active”. In addition, the “urinary excretion of BTCG compared to MTCG of the first study” value in the data set on isoamyl aldehyde (cyanamide, CbG, isoamyl alcohol vs disulfiram, CbG, ethanol (nanograms of BTCG vs. micrograms of MTCG)) is “more than 3 orders of magnitude lower”. Also, in the data set on acetaldehyde (rats given disulfiram and ethanol, oral CbG (Group B) vs CG (Group A), urine collected over 24 hours, LC/MS), the “urinary excretion of MTCG relative to CG administration” value is on record as 4.25 times greater. The “oral bioavailability (in words)” value in the data set on acetaldehyde (rats) was “more orally bioavailable than CG”.

Consider `CC1NC(C(=O)NCC(=O)O)CS1` (centres unmarked) [MTCG, 2-methylthiazolidine-4-carbonylglycine], for which the “stability in 0.1 N HCl” value in data set [1] is “stable”. Also, the “stability in biological fluids of rats, including urine” value in data set [2] is given as “stable”.

For the compound `N[C@@H](CS)C(=O)NCC(=O)O` [CG, cysteinylglycine], the “urinary MTCG excretion, CG group (Group A) compared with disulfiram and ethanol only (Group C)” value in the data set with acetaldehyde (rats, disulfiram and ethanol, 24 hour urine) is “not statistically significant”. In the data set on acetaldehyde (rats), the “oral bioavailability (in words)” value is on record as “poor oral bioavailability”.

`N[C@@H](CS)C(=O)O` [L-cysteine]: the “MTCA in urine after ethanol and L-cysteine” value in data set [3] (rats administered ethanol and L-cysteine) is “could not find MTCA in the urine”.

For the compound `CC1NC(C(=O)O)CS1` (centres unmarked) [MTCA, 2-methylthiazolidine-4 carboxylic acid], the “metabolic fate of radiolabel” value in data set [3] (rat, in vivo) was “most of the radiolabel appeared as expired ^14CO2”. Further, the “MTCA in urine after administration of MTCA” value in data set [3] (rats, MTCA 400 mg/kg) is “no MTCA in the urine”.

The record behind these values is patent US11717554B2, “Method for preventing or treating hangover symptom(s) associated with consumption of alcoholic beverage(s)” (MAX R&D LLC, priority 2019, dated 2023).
